Experimental findings from patent EP0799218B1, “DIARYL-2-(5H)-FURANONES AS COX-2 INHIBITORS” (Merck Frosst Canada & Co., priority 1994, dated 1996) are described below.

The subject of one test is Rat Paw Edema. In words: Rat paw edema assay (carrageenan-induced). The format is in vivo, Male Sprague-Dawley rats. Particulars: po, 1 hr before subplantar carrageenan, paw volume 3 hr later. On the procedure:
Male Sprague-Dawley rats (150 - 200 g) were fasted overnight and were given po either vehicle (1% methocel or 5% Tween 80) or a test compound. One hr later, a line was drawn using a permanent marker at the level above the ankle in one hind paw to define the area of the paw to be monitored. The paw volume (V0) was measured using a plethysmometer (Ugo-Basile, Italy) based on the principle of water displacement The animals were then injected subplantarly with 50 µl of 1% carrageenan solution in saline (FMC Corp, Maine) into the paw using an insulin syringe with a 25-gauge needle (i.e. 500 µg carrageenan per paw). Three hr later, the paw volume (V3) was measured and the increases in paw volume (V3 - V0) were calculated. The animals were sacrificed by CO2 aphyxiation and the absence or presence of stomach lesions scored. Data were compared with the vehicle-control values and percent inhibition calculated. Since a maximum of 60-70% inhibition (paw edema) was obtained with standard NSAIDs, ED30 values were used for comparison. All treatment groups were coded to eliminate observer bias.
In general terms: In the carrageenan paw model, swelling and tenderness develop within hours.

The next test concerns the target T1, Cox-1 (Homo sapiens, UniProt P23219).
T1 construct: platelets in whole blood contain a large amount of the Cox-1 enzyme; endogenous in cells; host or cells: platelets in fresh human whole blood, no anticoagulant, clotting for 1 hour at 37 °C
In words: Human whole blood assay, Cox-1 (clotting-induced TxB2 production). In kind it is cell-based. Particulars: clotting 1 hour at 37 °C, TxB2 by enzyme immunoassay, read-out: HWB Cox-1 IC50. On the procedure: (§1) Human whole blood provides a protein and cell-rich milieu appropriate for the study of biochemical efficacy of anti-inflammatory compounds such as selective Cox-2 inhibitors. […] This is consistent with the observation that Cox-2 inhibitors have no effect on PGE2 production in normal blood. These inhibitors are active only after incubation of human whole blood with LPS (lipopolysaccharide), which induces Cox-2. This assay can be used to evaluate the inhibitory effect of selective Cox-2 inhibitors on PGE2 production: As well, platelets in whole blood contain a large amount of the Cox-1 enzyme. Immediately following blood clotting, platelets are activated through a thrombin-mediated mechanism. This reaction results in the production of thromboxane B2 (TxB2) via activation of Cox-1. Thus, the effect of test compounds on TxB2 levels levels following blood clotting can be examined and used as an index for Cox-1 activity. Therefore, the degree of selectivity by the test compound can be determined by measuring the levels of PGE2 after LPS induction (Cox-2) and TxB2 following blood clotting (Cox-1) in the same assay.
Fresh blood was collected into vacutainers containing no anticoagulants. Aliquots of 500 µL were immediately transferred to siliconized microcentrifuge tubes preloaded with 2 µL of either DMSO or a test compound at final concentrations varying from 10nM to 30 µM. The tubes were vortexed and incubated at 37 °C for 1 hour to allow blood to clot. At the end of incubation, serum was obtained by centrifugation (12,000 x g for 5 min.). A 100 µL aliquot of serum was mixed with 400 µL of methanol for protein precipitation. The supernatant was obtained and was assayed for TxB2 using a enzyme immunoassay kit (Cayman, #519031) according to the manufacturer's instruction.
(§2) Compounds of the present invention are inhibitors of cyclooxygenase-2 and are thereby useful in the treatment of cyclooxygenase-2 mediated diseases as enumerated above. The activities of the compounds against cyclooxygenase may be seen in the representative results shown below. In the assay, inhibition is determined by measuring the amount of prostaglandin E2 (PGE2) synthesized in the presence of arachidonic acid, cyclooxygenase-1 or cyclooxygenase-2 and a putative inhibitor. The IC50 values represent the concentration of putative inhibitor required to return PGE2 synthesis to 50% of that obtained as compared to the uninhibited control.

A further test deals with T2, Cox-2 (Homo sapiens, UniProt P35354).
T2 construct: endogenous in cells; host or cells: fresh heparinized human whole blood from volunteers, stimulated with LPS
T2 sequence (P35354 18-604 limits assumed): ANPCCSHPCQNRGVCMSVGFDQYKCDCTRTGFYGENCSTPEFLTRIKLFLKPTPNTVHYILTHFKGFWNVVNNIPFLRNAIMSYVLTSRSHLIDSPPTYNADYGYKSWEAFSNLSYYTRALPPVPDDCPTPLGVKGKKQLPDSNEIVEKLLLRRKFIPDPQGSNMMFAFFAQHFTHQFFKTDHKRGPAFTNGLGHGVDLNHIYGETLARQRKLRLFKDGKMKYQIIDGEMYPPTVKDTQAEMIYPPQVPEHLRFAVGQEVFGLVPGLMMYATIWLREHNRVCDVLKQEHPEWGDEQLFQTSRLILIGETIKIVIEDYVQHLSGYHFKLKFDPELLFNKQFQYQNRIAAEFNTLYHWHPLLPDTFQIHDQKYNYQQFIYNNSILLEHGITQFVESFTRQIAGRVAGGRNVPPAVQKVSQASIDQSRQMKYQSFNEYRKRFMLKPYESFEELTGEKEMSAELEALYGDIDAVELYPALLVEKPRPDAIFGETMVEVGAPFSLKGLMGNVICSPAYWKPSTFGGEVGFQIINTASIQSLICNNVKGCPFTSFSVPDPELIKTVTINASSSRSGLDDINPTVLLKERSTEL
In words: Human whole blood assay, Cox-2 (LPS-induced PGE2 production). In kind it is cell-based. Conditions: LPS 100 µg/ml, 24 hours at 37 °C, PGE2 by radioimmunoassay, read-out: HWB Cox-2 IC50. The protocol:
as §1
Fresh blood was collected in heparinized tubes by venipuncture from both male and female volunteers. The subjects had no apparent inflammatory conditions and had not taken any NSAIDs for at least 7 days prior to blood collection. Plasma was immediately obtained from a 2mL blood aliquot to use as blank (basal levels of PGE2). The remaining blood was incubated with LPS (100 µg/ml final concentration, Sigma Chem, #L-2630 from E. coli; diluted in 0.1% BSA-Phosphate buffered saline) for 5 minutes at room temperature. Five hundred µL aliquots of blood were incubated with either 2 µL vehicle (DMSO) or 2 µL of a test compound at final concentrations varying from 10nM to 30µM for 24 hours at 37 °C. At the end of the incubation, the blood was centrifuged at 12,000 x g for 5 minutes to obtain plasma. A 100 µL aliquot of plasma was mixed with 400 µL of methanol for protein precipitation. The supernatant was obtained and was assayed for PGE2 using a radioimmunoassay kit (Amersham, RPA#530) after conversion of PGE2 to its methyl oximate derivative according to the manufacturer's procedure.
as §2

The structures appear in SMILES notation.

T1 sequence (P23219 24-599): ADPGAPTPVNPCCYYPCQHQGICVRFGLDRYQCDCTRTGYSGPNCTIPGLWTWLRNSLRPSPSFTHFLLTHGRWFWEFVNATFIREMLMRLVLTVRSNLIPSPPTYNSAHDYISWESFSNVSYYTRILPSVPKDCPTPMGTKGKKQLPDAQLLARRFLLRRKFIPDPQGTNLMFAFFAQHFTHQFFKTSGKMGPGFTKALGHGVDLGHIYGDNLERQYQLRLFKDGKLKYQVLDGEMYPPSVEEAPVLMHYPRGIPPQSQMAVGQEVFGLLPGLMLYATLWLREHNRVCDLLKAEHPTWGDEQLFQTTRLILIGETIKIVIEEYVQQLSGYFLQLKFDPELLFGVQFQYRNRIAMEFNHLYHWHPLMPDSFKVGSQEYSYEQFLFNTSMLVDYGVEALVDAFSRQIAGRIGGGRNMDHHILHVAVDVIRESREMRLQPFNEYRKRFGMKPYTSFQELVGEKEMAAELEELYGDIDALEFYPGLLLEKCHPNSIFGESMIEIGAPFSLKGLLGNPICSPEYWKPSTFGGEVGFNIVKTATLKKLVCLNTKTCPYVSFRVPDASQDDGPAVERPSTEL

`COc1cccc(C2=C(c3ccc(S(C)(=O)=O)cc3)C(C)(C)OC2=O)c1` [Example 2, 5,5-Dimethyl-3-(3-methoxyphenyl)-4-(4-(methylsulfonyl)phenyl)-2-(5H)-furanone] came in with an ED30 in the test on Rat Paw Edema of 0.3 mg/kg. For the same compound, the concentration for half-maximal inhibition (IC50) – broadly, the concentration at which inhibition is half-maximal – at Cox-1 was more than 30 µM; at Cox-2, 0.81 µM.
Regarding `CC1(C)OC(=O)C(c2ccccc2)=C1c1ccc(S(C)(=O)=O)cc1` [Example 4, 5,5-Dimethyl-4-(4-(methylsulfonyl)phenyl)-3-phenyl-2-(5H)-furanone], the ED30 in the test on Rat Paw Edema was found to be 0.26 mg/kg. Moreover, the IC50 was more than 30 µM on Cox-1 and 0.17 µM at Cox-2.
In the test with Rat Paw Edema, `CS(=O)(=O)c1ccc(C2=C(c3ccccc3)C(=O)OC23CCCC3)cc1` [Example 10, 4-(4-(Methylsulfonyl)phenyl)-3-phenyl-1-oxa-spiro[4,4]non-3-en-2-one] came in with an ED30 of 0.41 mg/kg. In addition, the concentration for half-maximal inhibition (IC50) on Cox-1 amounted to 30 µM; on Cox-2 it was 0.37 µM.
In the test with Rat Paw Edema, `CC1(C)CC(c2ccc(S(C)(=O)=O)cc2)=C(c2ccccc2)C1=O` [Example 11, 5,5-Dimethyl-3-(4-(methylsulfonyl)phenyl)-2-phenylcyclopent-2-enone] gave an ED30 of 1.17 mg/kg. The concentration for half-maximal inhibition (IC50) on Cox-1 is 2.2 µM; on Cox-2, 0.06 µM.
On the same counts, the results for `CS(=O)(=O)c1ccc(C2=C(c3ccccc3)C(=O)OC23CC3)cc1` [Example 13, 7-(4-(Methylsulfonyl)phenyl)-6-phenyl-4-oxa-spiro[2,4]-hept-6-en-5-one] are 0.3 mg/kg, more than 30 µM and 0.6 µM.
Turning to `CS(=O)(=O)c1ccc(C2=C(c3ccccc3)C(=O)OC2(CF)CF)cc1` [Example 14, 5,5-Bisfluoromethyl-3-phenyl-4-(4-(methylsulfonyl)phenyl)-2-(5H)-furanone], the ED30 in the test on Rat Paw Edema amounted to 0.62 mg/kg. Further, the IC50 at Cox-1 was more than 30 µM; at Cox-2, 1.1 µM.
